Reference: patent US6420129B1, “Reagent composition for determination of electrolytes” (Toyo Boseki Kabushiki Kaisha, priority 1998, dated 2002)

Experiments:
[1] = Visual observation of test solutions for deposition of crystals or white turbidity; assay type: physicochemical; design: key to turbidity (visual observation): +: turbidity found; −: no turbidity
Method: Among the reagents for the determination of calcium with the reagent formulations as described below, test enzyme solutions were prepared by the addition of glucosyl-α-cyclodextrin (G1αCD), maltosyl-α-cyclodextrin (G2αCD), glucosyl-p-cyclodextrin (G1βCD), or maltosyl-β-cyclodextrin(G2βCD) as a cyclodextrin derivative to have a concentration of 0, 1.5, 3, 6, or 12 mM. To the test enzyme solutions containing 3 mM glucosyl-β-cyclodextrin was further added independently N-acetylcysteine or reduced glutathione to have a concentration of 2.5, 5, 10, or 20 mM.
Both kinds of test solutions prepared by the above procedures were stored at 4° C. for 3 months. Visual observation of the test solutions was carried out just after the preparation and after the storage to examine whether there was found the deposition of crystals or the presence of white turbidity. The results are shown in table 1 for the visual observation just after the preparation and in Table 2 for the visual observation after the storage.
The test solutions were prepared in the same manner as described in Example 1, except that α-cyclodextrin (αCD) (1.5, 3, 6, or 12 mM), β-cyclodextrin (βCD) (1.5, 3, 6, or 12 mM), or γ-cyclodextrin (γCD) (1.5, 3, 6, or 12 mM) was independently added instead of the cyclodextrin derivatives and the SH group containing compounds in the above reagent formulations to have the respective concentrations as shown in Table 1. Both kinds of test solutions were stored at 4° C. for 3 months. Visual observation of the test solutions was carried out just after the preparation and after the storage to examine whether there was found the deposition of crystals or the presence of white turbidity. The results are shown in Table 1 for the visual observation just after the preparation and in Table 2 for the visual observation after the storage.

[2] = molecular target: T1, Inactive α-amylase (from swine pancreas) (Sus scrofa, UniProt P00690); test: Residual activity of α-amylase in test enzyme solutions after storage; assay type: biochemical; details: after storage at 35° C. for 7 days
T1 construct: α-amylase derived from the swine pancreas; from tissue; host or cells: swine pancreas
T1 sequence (P00690 16-511): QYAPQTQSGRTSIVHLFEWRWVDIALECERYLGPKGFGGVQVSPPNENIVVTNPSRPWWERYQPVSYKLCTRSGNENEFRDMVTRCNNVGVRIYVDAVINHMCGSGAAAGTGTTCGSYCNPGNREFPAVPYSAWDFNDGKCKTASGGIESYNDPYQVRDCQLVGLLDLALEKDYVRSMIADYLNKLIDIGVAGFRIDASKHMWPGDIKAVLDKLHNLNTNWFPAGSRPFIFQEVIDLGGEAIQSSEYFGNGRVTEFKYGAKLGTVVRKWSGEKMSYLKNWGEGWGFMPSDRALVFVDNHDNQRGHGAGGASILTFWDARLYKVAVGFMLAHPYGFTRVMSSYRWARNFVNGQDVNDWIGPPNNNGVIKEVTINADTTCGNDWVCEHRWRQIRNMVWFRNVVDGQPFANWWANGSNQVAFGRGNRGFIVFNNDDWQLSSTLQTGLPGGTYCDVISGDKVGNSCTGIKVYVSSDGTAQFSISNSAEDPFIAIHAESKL
Method: [table] In the test enzyme solutions of the reagents for the determination of calcium with the reagent formulations as described above in Example 1, glucosyl-α-cyclodextrin, maltosyl-α-cyclodextrin, glucosyl-β-cyclodextrin, or maltosyl-β-cyclodextrin was independently added as a cyclodextrin derivative at 12 mM. […] Instead of the cyclodextrin derivatives and the SH group containing compounds in the reagent formulations as described above in Example 1, glucose (100 mM), maltose (50 mM), maltotriose (30 mM), α-cyclodextrin (1.5 mM), β-cyclodextrin (1.5 mM), γ-cyclodextrin (1.5 mM), N-acetylcysteine (20 mM), or reduced glutathione (20 mM) was independently added to have the respective concentrations as shown in Table 3.

[3] = molecular target: T1, Inactive α-amylase (from swine pancreas); test: Relative sensitivity in determination of calcium with 10 mg/dl calcium standard solution; assay type: biochemical; details: just after the preparation, 10 mg/dl calcium standard
Method: [table] In the test enzyme solutions of the reagents for the determination of calcium with the reagent formulations as described above in Example 1, glucosyl-α-cyclodextrin, maltosyl-α-cyclodextrin, glucosyl-β-cyclodextrin, or maltosyl-β-cyclodextrin was independently added as a cyclodextrin derivative at 0, 1.5, 3, 6, or 12 mM. To the test enzyme solutions containing 3 mM glucosyl-β-cyclodextrin was further added independently N-acetylcysteine or reduced glutathione at 2.5, 5, 10, or 20 mM, and the determination of calcium ions with a calcium standard solution was carried out as described below. According to the method as described below, the determination of the amount of calcium was carried out for test solutions just after the preparation with 10 mg/dl calcium standard solution as a sample, and the relative sensitivity (%) was determined under the respective reagent conditions when the sensitivity in the case of no addition of cyclodextrin derivatives was taken as 100%. B. Method for the Determination of the Amount of Calcium To 5.8 μl of a sample was added 180 μl of a test enzyme solution, and the mixture was pre-warmed for 5 minutes, to which 90 μl of a test substrate solution was further added to make the reaction start. […] The measuring apparatus used was HITACHI Automatic Analyzer model 7170. The measurement wavelength was 405 nm for the principal wavelength and 546 nm for the second wavelength. The measurement was carried out at 37° C. […] The test solutions thus prepared were used for the determination of the calcium standard solution in the same manner as described in Example 3.

[4] = molecular target: T1, Inactive α-amylase (from swine pancreas); test: Calcium linearity of test solutions just after preparation and after storage; assay type: biochemical; details: after the storage at 35° C. for 7 days
Method: To 5.8 μl of a sample was added 180 μl of a test enzyme solution, and the mixture was pre-warmed for 5 minutes, to which 90 μl of a test substrate solution was further added to make the reaction start. The change of absorbance per minute for 3 minutes was measured starting at the time when 2 minutes passed after the addition of the test substrate solution, and the amount of calcium in the sample was determined according to the two-point calibration curves for purified water and 10 mg/dl calcium standard solution.
The measuring apparatus used was HITACHI Automatic Analyzer model 7170. The measurement wavelength was 405 nm for the principal wavelength and 546 nm for the second wavelength. The measurement was carried out at 37° C.
[…] […] According to the method for the determination of the amount of calcium as described in Example 3, Sec. B, the calcium linearity was determined for test solutions just after the preparation and after the storage at 35° C. for 7 days with serial 10-fold dilutions of a 50 mg/dl aqueous calcium solution as samples.
Instead of the cyclodextrin derivatives and the SN-group containing compounds in the reagent formulations as described above in Example 1, β-cyclodextrin was added at 1.5 mM. The test solutions thus prepared were stored at 35° C. for 7 days and the calcium linearity was determined in the same manner as described in Example 3.

[5] = after storage at 4° C. for 3 months, agent added 1.5 mM
[6] = after storage at 4° C. for 3 months, agent added 3 mM
[7] = after storage at 4° C. for 3 months, agent added 6 mM
[8] = after storage at 4° C. for 3 months, agent added 12 mM
[9] = just after the preparation, agent added 1.5 mM
[10] = just after the preparation, agent added 3 mM
[11] = just after the preparation, agent added 6 mM
[12] = just after the preparation, agent added 12 mM

| Compound | turbidity (visual observation) [1, 5] | turbidity (visual observation) [1, 6] | turbidity (visual observation) [1, 7] | turbidity (visual observation) [1, 8] | turbidity (visual observation) [1, 9] | turbidity (visual observation) [1, 10] | turbidity (visual observation) [1, 11] | turbidity (visual observation) [1, 12] | Residual activity (%) ([2]; agent 12 mM) | Relative sensitivity (%) when sensitivity in case of no addition is taken as 100% ([3]; agent 1.5 mM) [%] | Relative sensitivity (%) when sensitivity in case of no addition is taken as 100% ([3]; agent 3 mM) [%] | Relative sensitivity (%) when sensitivity in case of no addition is taken as 100% ([3]; agent 6 mM) [%] | Relative sensitivity (%) when sensitivity in case of no addition is taken as 100% ([3]; agent 12 mM) [%] | calcium linearity / quantitative reliability (in words) ([4]; agent 12 mM) | turbidity of test enzyme solution (in words) ([1]; after the storage at 4° C. for 3 months, at 3 mM) | turbidity of test enzyme solution (in words) ([1]; just after the preparation, at 6 mM) | Residual activity (%) ([2]; agent 1.5 mM) | calcium linearity / quantitative reliability (in words) ([4]; agent 1.5 mM) |
| --- | --- | --- | --- | --- | --- | --- | --- | --- | --- | --- | --- | --- | --- | --- | --- | --- | --- | --- |
| OCC1OC(OCC2OC3OC4C(CO)OC(OC5C(CO)OC(OC6C(CO)OC(OC7C(CO)OC(OC8C(CO)OC(OC9C(CO)OC(OC2C(O)C3O)C(O)C9O)C(O)C8O)C(O)C7O)C(O)C6O)C(O)C5O)C(O)C4O)C(O)C(O)C1O (stereo not drawn) [G1βCD, glucosyl-β-cyclodextrin] | − | − | − | − | − | − | − | − | 91.7 | 120.7 | 128.6 | 133.2 | 122.5 | the quantitative reliability was kept at high concentrations |  |  |  |  |
| OC[C@H]1O[C@@H]2O[C@H]3[C@H](O)[C@@H](O)[C@@H](O[C@H]4[C@H](O)[C@@H](O)[C@@H](O[C@H]5[C@H](O)[C@@H](O)[C@@H](O[C@H]6[C@H](O)[C@@H](O)[C@@H](O[C@H]7[C@H](O)[C@@H](O)[C@@H](O[C@H]8[C@H](O)[C@@H](O)[C@@H](O[C@H]1[C@H](O)[C@H]2O)O[C@@H]8CO)O[C@@H]7CO)O[C@@H]6CO)O[C@@H]5CO)O[C@@H]4CO)O[C@@H]3CO [βCD, β-cyclodextrin, reference compound] | − | − | + | + | − | − | + | + |  |  |  |  |  |  | became turbid | had already become turbid | 77.4 | became deviated upward, and the quantitative reliability was decreased at high concentrations |
